# Measured values: US20230149383A1, “QUINOLINE COMPOUNDS FOR TREATING LUNG, LIVER, AND KIDNEY DISEASES, DISORDERS, OR CONDITIONS” (Aldeyra Therapeutics, Inc., priority 2020, published 2023)
# Legend:
# Genotoxicity studies = assay: Genotoxicity studies
# Procedure: (§1) I-1 plasma concentrations are projected to have reached at least 10 μM, exceeding reported levels of RASP in humans with inflammatory diseases. The data support the potential of I-1, and RASP inhibition in general, in treating inflammation and fibrosis.
# rat NAFLD model [1] = assay: 12-week choline deficient high fat diet rat study (NAFLD model); type: in vivo; settings: 11 Week Groups (Day 84)
# [2] = tested on: large panel of ligand binding assays, ion channel assays, transporter assays, and enzyme inhibition studies; assay: Secondary pharmacology studies (ligand binding, ion channel, transporter, enzyme inhibition panel)
# Procedure: as §1
# free MDA = assay: Phase 1 trial, plasma biomarkers in healthy volunteers; type: in vivo, human; settings: vs placebo
# [3] = First-in-human Phase 1 trial (SAD/MAD), safety; type: in vivo
# Procedure: The adverse event profile was favorable compared to placebo: A total of 6 (9.4%) subjects receiving the test compound had treatment emergent adverse events, compared to 4 (19.1%) subjects who received placebo. […] No changes in serum glucose were observed. […] There were no subjects who had QTcF >500 msec or a change of >60 msec from baseline. […] Three of these five subjects were in the SAD portion of the study (one each in the 100 mg, 200 mg, and 700 mg dose cohorts) and the remaining two subjects were in the MAD portion of the study (one each in the 150 mg BID and 300 mg BID dose cohorts).
# Clinical development of compound I-1 in inflammatory disease is supported by safety testing in human healthy volunteers in single and multiple ascending dose (10 day), placebo-controlled Phase I trials.
# rat NAFLD model [4] = assay: 12-week choline deficient high fat diet rat study (NAFLD model); type: in vivo; settings: for NAS score: 7 week group
# From the text: NAFLD is diagnosed in the US as 3 million new cases each year. NASH is included in the NAFLD diagnosis, as it is the easiest to ascertain in a subject. NAFLD activity score (NAS) is scored as 0-2 not diagnostic, 3-4 ranges from not diagnostic/borderline/positive NASH, and 5-8 diagnostic of NASH; the NAS scoring system includes a composite of […] semi-quantitative features: steatosis (0-3), lobular inflammation (0-2), hepatocellular ballooning (0-2), and fibrosis (0-4). To analyze the effect of compound I-1 on NAFLD, NAS was analyzed in rats treated with vehicle or various doses of compound I-1 (100 mg/kg, 125 mg/kg was compared to escalation 30/60/100 mg/kg and 50/75/100 mg/kg BID, respectively in animals fed a choline deficient, high fat diet for 7 weeks (vehicle vs. 100 mg/kg vs 30/60/100 mg/kg) and 12 weeks (vehicle vs. 125 mg/kg vs 50/75/100 mg/kg). Plasma was collected at 1, 2, 3, 6, 8, 10, and 12 weeks and tested for cytokines and ALT, AST, Triglycerides, Cholesterol, and tBilirubin (measures of liver function). At 12 weeks the livers were collected and gene expression studies, immunohistochemistry, and hydroxyproline.
# [5] = after high-fat meal on Day 10, 600 mg BID
# [6] = plasma, 7 week and 12 week groups, vs vehicle
compound,measurement,setting,value
CC(C)(O)c1nc2ccccc2cc1N [I-1],potential for mutagenicity or clastogenicity,Genotoxicity studies,no potential for mutagenicity or clastogenicity
same,risk of genotoxicity,Genotoxicity studies; preclinical studies,low risk of genotoxicity
same,NAS scores,rat NAFLD model [1],lower
same,risk of off-target effects,[2],low risk of off-target effects
same,free MDA levels in plasma,free MDA; 600 mg BID over 10 days,decrease in free MDA levels was observed
same,levels of HDL,free MDA; [5],statistically higher
same,levels of free fatty acids,free MDA; [5],statistically lower
same,overall safety and tolerability,"[3]; Phase 1 SAD and MAD (10 day), up to 600 mg BID",safe and tolerable
same,subjects with QTcF change of >30 msec from baseline,"[3]; SAD 100, 200, 700 mg, MAD 150 mg BID, 300 mg BID cohorts",Five
same,QTcF prolongation,[3]; in vivo,did not lead to QTcF prolongation
same,"changes in heart rate, blood pressure, respiratory rate, pulse oximetry, or temperature",[3]; in vivo,No clinically meaningful changes
same,"changes in hepatic or renal analytes (ALT, AST, ALP, amylase, GGT, bilirubin, creatinine kinase, creatinine)",[3]; in vivo,No clinically meaningful changes
same,changes in serum glucose,[3]; in vivo,No changes
same,hematological changes,[3]; in vivo,No clinically significant hematological changes
same,interruptions or discontinuations of study drug administration,[3]; in vivo,no interruptions or discontinuations
same,subjects with QTcF >500 msec or a change of >60 msec from baseline,[3]; in vivo,no subjects
same,subjects with treatment emergent adverse events,"[3]; subjects receiving the test compound, number (%)",6 (9.4%) subjects
same,liver fibrosis (picrosirius red histopathology),rat NAFLD model [4]; 7 week and 12 week groups,trended to have reduced
same,liver inflammation (hematoxylin eosin histopathology),rat NAFLD model [4]; 7 week and 12 week groups,trended to have reduced
same,NAS score,"rat NAFLD model [4]; 100 mg/kg, vs vehicle",statistical significant reduction
same,NAS score,rat NAFLD model [4]; 30/60/100 mg/kg escalation,reduced
same,MCP expression levels,"rat NAFLD model [4]; 12 week group, vs vehicle",remained similar to vehicle
same,MIP expression levels,"rat NAFLD model [4]; 12 week group, vs vehicle",reduction
same,Rantes expression levels,"rat NAFLD model [4]; 12 week group, vs vehicle",remained similar to vehicle
same,cholesterol,rat NAFLD model [4]; [6],trended at lower values than vehicle
same,triglycerides,rat NAFLD model [4]; [6],trended at lower values than vehicle
